Data: patent US12201679B2, “Epitope-targeted peptide immunostimulants” (priority 2019, dated 2025)
“And” between values parts separate entries of the source, which are not always exact repeats. Equal entries are not always repeated. “Also recorded” adds a separate entry of the source. Square brackets hold non-standard residues; d marks the D form. Ends that are not written are not given here.

Legend:
[1] = tested on: K. pneumoniae cells (strain BAA 1705); experiment: Gentamicin protection assay: phagocytosis and opsonophagocytic killing (OPK) by macrophages; type: cell-based, Klebsiella pneumoniae; conditions: for colony counts at 1 h, EPI plus anti-DNP antibody: 5 μM AR-PCC, murine BMDMs; for phagocytosis at 1 h, AR-PCC only (no anti-DNP): control samples
Experimental: It also tested whether DNP-conjugated EPIs could promote the opsonophagocytic killing (OPK) of K. pneumoniae by macrophages. This was tested by using an OPK assay. Briefly, K. pneumoniae cells were treated with EPI and then anti-DNP antibody before being exposed to macrophages for either 6 or 24 hours. During this incubation period, macrophages that recognize K. pneumoniae cells will phagocytose them, and phagocytosed bacteria will remain viable for up to 6 hours, but within 24 hours are rendered inviable by OPK. Thus, macrophages were isolated after 6 and 24 hours of incubation with K. pneumoniae, lysed them, and plated and grew the lysate, which yielded bacterial colonies that reflect the phagocytosis (at 6 hrs) or OPK (at 24 hrs) of bacteria.
Given that cy(LLFFF)-DNP (SEQ ID NO:5) recruits antibodies to K. pneumoniae surfaces, it was expected that K. pneumoniae opsonized in this manner would be more susceptible to phagocytosis by macrophages. AR-PCC-driven phagocytosis and OPK were quantified by a gentamicin protection assay, as depicted in FIG. 7A. For this assay, K. pneumoniae cells (strain BAA 1705) were treated with cy(LLFFF)-DNP (SEQ ID NO:5), opsonized by anti-DNP antibodies, and then incubated with murine bone-marrow-derived macrophages (BMDMs). BMDMs were subsequently exposed to a solution containing gentamicin, to which K. pneumoniae strain BAA 1705 is susceptible, to kill any extracellular bacteria. Phagocytosed bacteria remain viable inside BMDMs for at least 1 h, yet are rendered inviable after 24 h by OPK (FIG. 13). Macrophages harvested at 1 h and 24 h were lysed and plated to generate bacterial colonies, which were enumerated to quantify phagocytosis and OPK.
Klebsiella pneumoniae BAA1705 was treated with DNP-PCCs followed by incubation with anti-DNP antibody, as described above in the “Cell-Based ELISAs” section. These opsonized bacteria were then used to infect BMDMs at a multiplicity of infection of 50 for 0.5 h at 37° C. Bacteria were then washed by using RPMI 1640 Media and BMDMs were left in cell culture medium containing gentamicin (100 μg/ml). After 1 h and 24 h BMDMs were washed to remove gentamicin and intracellular bacteria were harvested by lysing BMDMs in RPMI media containing 0.2% Triton X 100. Bacterial CFUs were enumerated by plating onto LB agar. Bacterial counts at 1 h indicated the degree of opsonization while those at 24 h served as a measure of microbicidal activity of macrophages. For these measurements, anti-MrkA antibody and K. pneumoniae antiserum were used at dilutions of 5 μg/mL each.

Salmonella typhimurium = experiment: Whole-cell ELISA, biotinylated PCC, S. typhimurium; type: cell-based; conditions: biotinylated PCC at 5 μM, FIG. 5C
Experimental: (§1) Whole-cell ELISA data in FIG. 5C show strong signal from the two strains of K. pneumoniae (BAA 1705 and BAA 2146) but only weak signals from Escherichia coli (E. coli) or Salmonella typhimurium (S. typhimurium) cells. […] In these tests, droplets of phosphate buffered solution containing live bacteria or heat-killed bacteria and various concentrations of (NH4)2SO4 at 10 m or 30 m following mixing were imaged. Aggregation in each droplet was assessed by visual inspection and scored as indicating non-aggregated, low levels of aggregation, or extensive aggregation. All droplets were on a single glass slide and image acquisition of all droplets took less than a minute for each 10 m and 30 m time point.
(§2) Detection of the binding of biotinylated PCCs to bacterial surface was performed as follows. 10^8 bacteria from a culture grown overnight were used for each test. Bacteria were incubated with PBS containing 1% BSA (PBS-BSA) for 1 h at 37° C., washed once with PBS, and then incubated with 5 μM of the biotinylated PCC in PBS-BSA for 1 h at 37° C. After washing thrice with PBS to remove unbound PCCs, bacteria were incubated with Streptavidin-HRP (1:1000) for 1 h at 37° C. Bacteria were washed thoroughly and the TMB reagent was added until visible coloration was observed. The reaction was quenched using 2N H2SO4 and absorbance was measured at 450 nm.

Escherichia coli = experiment: Whole-cell ELISA, biotinylated PCC, E. coli; type: cell-based; conditions: biotinylated PCC at 5 μM, FIG. 5C
Experimental: as §1, §2

[2] = tested on: wild type KPPR1 (ATCC 43816) cells; experiment: Whole-cell ELISA, biotinylated PCC, wild type KPPR1; type: cell-based, Klebsiella pneumoniae; conditions: biotinylated PCC 5 μM down to 5 nM, G-CAA media
Experimental: In this assay, bacteria are exposed to biotinylated PCC ligands, then SAv-horseradish peroxidase (SAv-HRP), and then developed to produce a colorometric signal that correlates with SAv-HRP binding.
Whole-cell ELISA assays were conducted on the wild type version of the clinically-relevant strain of K. pneumoniae, KPPR1 (ATCC 43816). Wild type KPPR1 cells were cultured in G-CAA media to promote fimbrial expression (54), and MrkA expression in KPPR1 was confirmed by a western blot (FIG. 5B inset, full blot in FIG. 9).
as §2

[3] = tested on: K. pneumoniae (strains BAA 1705 & 2146); experiment: Whole-cell ELISA, biotinylated PCC, multidrug-resistant K. pneumoniae; type: cell-based, Klebsiella pneumoniae; conditions: for whole-cell ELISA signal, K. pneumoniae BAA 1705 and BAA 2146: biotinylated PCC at 5 μM, FIG. 5C
Experimental: as §2, with “Bacteria were incubated with PBS containing 1% BSA (PBS-BSA) for 1 h at 37° C., washed once with PBS, and then incubated with 5 μM of the biotinylated PCC in PBS-BSA for 1 h at 37° C.” left out

[4] = tested on: MrkA-knockout KPPR1 cells; experiment: Whole-cell ELISA, biotinylated PCC, MrkA-knockout KPPR1; type: cell-based, Klebsiella pneumoniae
Experimental: ELISA signals were only observed for K. pneumoniae cells (strain BAA 1705) cultured in G-CAA (FIG. 11A), when treated with PCCs at concentrations of 5 μM or lower.
as §2

[5] = tested on: K. pneumoniae cells (strain BAA 2146); experiment: Flow cytometry, recruitment of fluorescent anti-DNP antibodies; type: cell-based, Klebsiella pneumoniae; conditions: for fluorescence of cells: cy(LLFFF)-DNP 1 or 5 μM, cy(HNGPT) 50 μM, plus fluorescent anti-DNP
Experimental: To test this, cells were incubated with DNP-conjugated EPIs and then fluorescently labeled anti-DNP antibody (Alexafluor488), and subsequently quantified the fluorescence of cells by using flow cytometry.
Cytometry measurements were gated for single cells, and each distribution comprises >18,000 cells.
Cytometry measurements were used to quantify AR-PCC-driven opsonization and opsonophagocytic killing of K. pneumoniae cells. For these measurements, K. pneumoniae cells were cultured in G-CAA medium overnight, washed, incubated with DNP-tagged AR-PCC at a desired concentration, washed, incubated with anti-DNP antibody conjugated with Alexafluor488, washed, then resuspended in PBS media. The samples were stored at 4° C. for 2 d before cytometry measurements were performed. The cytometer was calibrated by using Rainbow fluorescent beads (3.5 μm diameter) 3.5 m from BD (559123), which aided identification of single K. pneumoniae cells in subsequent measurements. Samples were excited with 488 nm light and the fluorescence emission at 530 nm was measured. Sample with no Alexaflour488 stain was used as fluorescent minus one (FMO) control for gating of DNP+ population. FACS data was analyzed on FlowJo v10 software, and the resulting histograms each include fluorescence data from >18,000 cells for strain BAA 2146 (FIG. 4B) and >4,000 cells for strain BAA 1705 (data not shown).

[6] = tested on: K. pneumoniae cells, BAA 1705 and BAA 2146; experiment: Whole-cell ELISA, anti-DNP recruitment to bacterial cell surfaces; type: cell-based, Klebsiella pneumoniae; conditions: cy(LLFFF)-DNP 5 or 10 μM; dummy cy(HNGPT)-DNP 50 and 100 μM; plus anti-DNP
Experimental: FIG. 12 is a plot of 450 nm absorbances obtained from a cell-based ELISA assay conducted on two strains of K. pneumoniae cells, BAA 1705 (black) and BAA 2146 (orange), that were either untreated or opsonized by EPIs (AR-PCCs) and/or antibodies. […] This establishes EPI-driven opsonization by cy(LLFFF)-DNP (SEQ ID NO:5).
The protocol for detecting anti-DNP recruitment to bacterial cell surfaces is as follows. Bacteria were incubated with the desired concentration of DNP-conjugated PCCs in PBS-BSA for 1 h at 37° C. Residual PCCs were washed off by using PBS-BSA and bacteria were incubated with anti-DNP antibody (1:1000) for 1 h at 37° C. After washing, bacteria were incubated with HRP conjugated secondary antibody (Bio-Rad) at a dilution of 1:10,000 for 1 h at 37° C. Unbound antibody was washed off by using PBS-BSA and the cells were then developed by using TMB reagent. The reaction was quenched using 2N H2SO4 and absorbance was measured at 450 nm. Anti-MrkA antibody was procured from Biorbyt (orb51318) and used at a concentration of 5 μg/mL, and K. pneumoniae antiserum was obtained from abcam (ab20947) and used at a concentration of 5 μg/mL.

[7] = tested on: live MRSA cells or heat-killed MRSA cells; experiment: ELISA, PCC-driven SAv-HRP recruitment to MRSA cells; type: cell-based, Staphylococcus aureus; conditions: biotinylated PCC, with or without 0.4 micrograms/mL tunicamycin
Experimental: FIG. 16A-16B are graphs showing PCC-driven recruitment of streptavidin-horseradish peroxidase (SAv-HRP) conjugate to live MRSA cells (FIG. 16A) or heat-killed MRSA cells (FIG. 16B) cultured under different antibiotic conditions via enzyme-linked Immunosorbent Assays (ELISAs). All tests were conducted by coating the antigen (MRSA cells) onto the wells of 96-well plates and then exposing the wells solutions containing biotinylated PCCs, then SAv-HRP, then HRP substrate followed by detection via absorbance at 450 nm. Absorbance values greater than the “no PCC” background indicate that several PCCs recruit SAv-HRP to either live cells (FIG. 16A) or heat-killed cells (FIG. 16B) cultured either without antibiotic (“−tunicamycin”, blue bars) or with 0.4 micrograms/mL of tunicamycin (“+tunicamycin”, red), which reduces the expression of wall teichoic aids by MRSA. All measurements were conducted in triplicate and error bars reflect standard deviations. The PCC sequences are, from left to right in both graphs, SEQ ID NOs: 6, 23, 34, and 29.
The recruitment ability of selected PCCs was assessed by PCC-driven recruitment of streptavidin-horseradish peroxidase (SAv-HRP) conjugate to live MRSA cells (FIG. 16A) or heat-killed MRSA cells (FIG. 16B) cultured under different antibiotic conditions via enzyme-linked Immunosorbent Assays (ELISAs). […]

[8] = strain BAA 1705, PCC 5 μM to 5 nM

cy(LLFFF)+R6-DNP (LLFFFRRRRRR; not fully specified (C-terminus); printed as cy(LLFFF)+R6-DNP; also: cyclic over residues 1-5, ring closure not given here)
colony counts at 1 h, EPI plus anti-DNP antibody ([1]; 1 h): 85,000 CFU | phagocytosis at 1 h, AR-PCC only (no anti-DNP) ([1]; 1 h): None of these treatments elicited phagocytosis above basal levels

cy(LLFFA) (cyclic)
whole-cell ELISA signal, S. typhimurium (Salmonella typhimurium): low signals | whole-cell ELISA signal, E. coli (Escherichia coli): low signals | whole-cell ELISA signal, wild type KPPR1 [2]: much lower intensities; also recorded: Much lower binding | colony counts at 1 h, EPI plus anti-DNP antibody ([1]; 1 h): 85,000 CFU | whole-cell ELISA signal, K. pneumoniae BAA 1705 and BAA 2146 [3]: low signals; also recorded: no or minimal binding above baseline | whole-cell ELISA binding at high PCC concentration ([3]; strain BAA 1705, 50 μM PCC, LB or G-CAA): bound K. pneumoniae cells regardless of MrkA-expression level; also recorded: strong and comparable ELISA signals | whole-cell ELISA 450 nm absorbance, cells cultured in G-CAA (high MrkA) [3, 8]: near-baseline absorbances | whole-cell ELISA 450 nm absorbance, cells cultured in LB (low MrkA) [3, 8]: near-baseline absorbances | whole-cell ELISA signal, MrkA-knockout KPPR1 [4]: comparable to baseline; also recorded: Much lower binding

cy(HNGPT)-DNP (cyclo(HNGPT); also: DNP label) [reference compound]
fluorescence intensity of cells (predominantly) ([5]; 50 μM AR-PCC plus Alexafluor 488 anti-DNP): < 1.0×10^1 intensity | 450 nm absorbance, anti-DNP opsonization of K. pneumoniae [6]: Much smaller signals

cy(kpdew) ([dK][dP][dD][dE][dW]; not fully specified (bridges); printed as cy(kpdew); also: cyclic, closure not given here)
SAv-HRP recruitment to MRSA cells [7]: Standout recruiting peptides

cy(LLFFA)-DNP (not fully specified (bridges); printed as cy(LLFFA)-DNP; also: DNP label)
phagocytosis at 1 h, DNP-tagged AR-PCC plus anti-DNP (words) ([1]; 1 h, FIG. 7B): None of these treatments elicited phagocytosis above basal levels | phagocytosis at 1 h, AR-PCC only (no anti-DNP) ([1]; 1 h): None of these treatments elicited phagocytosis above basal levels

cy(akkrp) ([dA][dK][dK][dR][dP]; not fully specified (bridges); printed as cy(akkrp); also: cyclic, closure not given here)
SAv-HRP recruitment to MRSA cells [7]: Standout recruiting peptides

cy(LLFFF)-DNP (cyclo(LLFFF); also: DNP label)
fluorescence of cells [5]: much higher fluorescence | colony counts at 1 h, EPI plus anti-DNP antibody ([1]; 1 h): 89,000 CFU and 85,000 CFU | phagocytosis at 1 h, AR-PCC only (no anti-DNP) ([1]; 1 h): None of these treatments elicited phagocytosis above basal levels | level of phagocytosis lower than K. pneumoniae antiserum and anti-MrkA treatment ([1]; plus anti-DNP, 1 h): about 15%

cy(HNGPT) (not fully specified (bridges); printed as cy(HNGPT); also: cyclic, closure not given here) [reference compound]
fluorescence of cells [5]: Slightly greater fluorescence | CFU, DNP-conjugated EPI plus anti-DNP, macrophages harvested at 6 hrs ([1]; 6 hrs): almost identical CFU count | cell counts, DNP-conjugated EPI only (no antibody), macrophages harvested at 6 hrs ([1]; 6 hrs): ~35,000 | whole-cell ELISA signal, K. pneumoniae BAA 1705 and BAA 2146 [3]: comparably lower signal; also recorded: no or minimal binding above baseline
